Where a name gives a salt, the structure may show the parent alone. Read-outs that look alike come from different tables or passages of the source.
What was measured:
Assay type in all cases: biochemical
purified rat liver FBP = molecular target: T1, purified rat liver FBP (Rattus norvegicus, UniProt P19112); assay: Inhibition of fructose-1,6-bisphosphatase (FBP), spectrophotometric assay
T1 construct: 0.02U of purified rat liver FBP; from tissue; host or cells: rat liver
T1 sequence (P19112 2-363 limits assumed): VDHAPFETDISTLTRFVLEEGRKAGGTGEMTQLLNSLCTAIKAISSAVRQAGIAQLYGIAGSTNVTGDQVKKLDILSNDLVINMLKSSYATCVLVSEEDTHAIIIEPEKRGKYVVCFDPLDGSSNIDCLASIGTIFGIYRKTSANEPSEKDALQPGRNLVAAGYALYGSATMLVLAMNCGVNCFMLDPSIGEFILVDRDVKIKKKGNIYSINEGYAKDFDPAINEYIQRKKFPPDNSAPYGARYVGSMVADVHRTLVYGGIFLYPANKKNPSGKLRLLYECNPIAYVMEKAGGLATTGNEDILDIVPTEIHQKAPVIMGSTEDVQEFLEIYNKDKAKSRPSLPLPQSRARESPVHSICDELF
Protocol: (§1) The novel compounds of this invention were tested for their ability to stimulate the enzyme 6-phosphofructo-1-kinase ("PFK") and for their ability to inhibit the enzyme fructose-1,6-bisphosphatase ("FBP") using the procedures described below.
Effects on the activity of FBP were determined using a spectrophotometric assay. The assay mixture contained: 100 mM tris(hydroxymethyl)aminomethane, hydrochloride ("TRIS-HCl", pH 7.4); 2.5 mM beta-mercaptoethanol; 2 mM magnesium chloride; 0.05 mM EDTA; 0.2 mM nicotinamide adenine dinucleotide phosphate ("NADP"); 10 U phosphoglucose isomerase; 5 U glucose-6-phosphate dehydrogenase; 0.02U of purified rat liver FBP; and various concentrations of the test compound, all in a final volume of 1 ml. The mixture was preincubated for 3 minutes at 30°C and then the reaction was initiated with 0.02 mM fructose-1,6-bisphosphate. The rate of increase in absorbance at 340 nm was measured at 30°C with a recording spectrophotometer.

[1] = molecular target: T2, purified rat liver 6-phosphofructo-1-kinase (Rattus norvegicus, UniProt P30835); assay: Stimulation of 6-phosphofructo-1-kinase (PFK), aldolase-coupled spectrophotometric assay; details: stimulation of enzyme; pH 7.3, 30°C, 1 mM ATP, reaction initiated with 0.2 mM fructose-6-phosphate; read-out: PFK ED₅₀
T2 construct: 0.1U of purified rat liver 6-phosphofructo-1-kinase; from tissue; host or cells: rat liver
T2 sequence (P30835 2-780 limits assumed): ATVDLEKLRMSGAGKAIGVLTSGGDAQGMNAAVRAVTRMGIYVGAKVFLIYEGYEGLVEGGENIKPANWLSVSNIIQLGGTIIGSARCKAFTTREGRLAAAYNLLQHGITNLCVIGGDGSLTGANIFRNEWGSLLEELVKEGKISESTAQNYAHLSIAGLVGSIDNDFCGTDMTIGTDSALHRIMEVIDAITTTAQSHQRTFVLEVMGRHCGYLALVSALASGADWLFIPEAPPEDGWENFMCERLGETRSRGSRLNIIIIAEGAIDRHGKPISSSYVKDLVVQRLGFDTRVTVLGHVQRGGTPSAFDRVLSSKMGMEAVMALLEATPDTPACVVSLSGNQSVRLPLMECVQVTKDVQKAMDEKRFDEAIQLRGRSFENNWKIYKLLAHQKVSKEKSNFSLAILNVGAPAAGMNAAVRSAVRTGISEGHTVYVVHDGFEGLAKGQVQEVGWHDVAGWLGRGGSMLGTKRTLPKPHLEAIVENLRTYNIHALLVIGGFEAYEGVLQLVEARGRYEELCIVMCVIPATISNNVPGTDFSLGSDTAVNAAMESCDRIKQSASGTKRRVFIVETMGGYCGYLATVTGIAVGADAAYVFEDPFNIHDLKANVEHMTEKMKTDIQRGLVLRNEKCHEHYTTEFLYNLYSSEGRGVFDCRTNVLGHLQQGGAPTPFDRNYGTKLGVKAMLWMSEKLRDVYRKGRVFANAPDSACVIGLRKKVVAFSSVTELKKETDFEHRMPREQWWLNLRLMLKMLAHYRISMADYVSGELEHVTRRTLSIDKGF
Protocol: as §1
Effects on the activity of PFK were determined using an aldolase-coupled, spectrophotometric assay. The assay mixture contained: 50 mM N-tris(hydroxymethyl)methyl-2-aminoethanesulfonic acid, hydrochloride ("TES-HCl", pH 7.3); 1mM ethylenediaminetetraacetic acid ("EDTA"); 6 mM magnesium chloride; 2.5 mM dithiothreitol; 0.165 mM nicotinamide adenine dinucleotide ("NADH"); 1mM adenosine triphosphate ("ATP"); 0.04U aldolase; 0.4U triose phosphate isomerase; 1.5U alpha-glycerolphosphate dehydrogenase; 0.1U of purified rat liver 6-phosphofructo-1-kinase; and various concentrations of the test compound, all in a final volume of 1 ml. The mixture was preincubated for 3 minutes at 30°C and then the reaction was initiated with 0.2 mM fructose-6-phosphate. The rate of decrease in absorbance at 340 nm was measured at 30°C with a recording spectrophotometer.

[2] = molecular target: T3, partially purified potato tuber 6-phosphofructo-1-kinase (Solanum tuberosum, UniProt P21342+P21343); assay: Stimulation of pyrophosphate-dependent 6-phosphofructo-1-kinase (PPi-PFK), aldolase-coupled spectrophotometric assay; details: stimulation of enzyme; pH 8.0, 30°C, 1 mM fructose-6-phosphate, reaction initiated with 0.5 mM sodium pyrophosphate; read-out: PPi-PFK ED₅₀
T3 construct: 0.1U of partially purified potato tuber; from tissue; host or cells: potato tuber
T3 sequence (P21343 1-569): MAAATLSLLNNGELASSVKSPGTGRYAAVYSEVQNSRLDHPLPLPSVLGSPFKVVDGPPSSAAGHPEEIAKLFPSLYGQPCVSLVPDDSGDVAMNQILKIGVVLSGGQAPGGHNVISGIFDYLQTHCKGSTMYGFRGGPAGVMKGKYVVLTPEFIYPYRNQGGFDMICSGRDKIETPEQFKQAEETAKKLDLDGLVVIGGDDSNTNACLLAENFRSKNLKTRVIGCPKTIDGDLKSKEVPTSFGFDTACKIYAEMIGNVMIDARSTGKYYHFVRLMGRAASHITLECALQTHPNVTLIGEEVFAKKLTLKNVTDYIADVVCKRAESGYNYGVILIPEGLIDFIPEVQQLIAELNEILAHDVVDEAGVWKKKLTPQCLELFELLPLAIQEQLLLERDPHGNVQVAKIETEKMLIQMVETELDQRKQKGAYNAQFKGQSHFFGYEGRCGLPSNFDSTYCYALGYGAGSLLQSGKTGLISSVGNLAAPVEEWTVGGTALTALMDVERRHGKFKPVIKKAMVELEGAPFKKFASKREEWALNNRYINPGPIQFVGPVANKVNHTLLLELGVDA
T3 sequence (P21342 1-616): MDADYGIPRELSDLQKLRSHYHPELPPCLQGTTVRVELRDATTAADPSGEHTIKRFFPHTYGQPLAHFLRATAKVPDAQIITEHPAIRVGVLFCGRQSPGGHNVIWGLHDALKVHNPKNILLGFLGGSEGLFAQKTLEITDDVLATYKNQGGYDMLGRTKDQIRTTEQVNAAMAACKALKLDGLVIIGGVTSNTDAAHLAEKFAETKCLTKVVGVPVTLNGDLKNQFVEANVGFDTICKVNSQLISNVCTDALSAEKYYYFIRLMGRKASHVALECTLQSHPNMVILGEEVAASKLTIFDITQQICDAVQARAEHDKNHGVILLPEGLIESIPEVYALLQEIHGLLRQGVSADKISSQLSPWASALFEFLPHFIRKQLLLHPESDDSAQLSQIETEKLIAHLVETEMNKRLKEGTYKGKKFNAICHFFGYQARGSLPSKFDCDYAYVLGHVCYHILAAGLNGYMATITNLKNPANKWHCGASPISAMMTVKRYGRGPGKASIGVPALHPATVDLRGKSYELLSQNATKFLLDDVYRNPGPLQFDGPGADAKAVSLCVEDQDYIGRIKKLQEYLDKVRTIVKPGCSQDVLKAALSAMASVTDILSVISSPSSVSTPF
Protocol: The novel compounds of this invention were also tested for their ability to stimulate the enzyme pyrophosphate-dependent 6-phosphofructo-1-kinase ("PPi-PFK"), a growth regulator in plants, using the procedures described below.
Effects on the activity of PPi-PFK were determined using an aldolase-coupled, spectrophotometric assay. The assay mixture contained: 50 mM N-tris(hydroxymethyl)methyl-2-aminoethanesulfonic acid, hydrochloride ("TES-HCl", pH 8.0); 1mM ethylenediaminetetraacetic acid ("EDTA"); 6 mM magnesium chloride; 2.5 mM dithiothreitol; 0.165 mM nicotinamide adenine dinucleotide ("NADH"); 1mM fructose-6-phosphate; 0.04U aldolase; 0.4U triose phosphate isomerase; 1.5U alpha-glycerolphosphate dehydrogenase; 0.1U of partially purified potato tuber 6-phosphofructo-1-kinase; and various concentrations of the test compound, all in a final volume of 1 ml. The mixture was preincubated for 3 minutes at 30°C and then the reaction was initiated with 0.5 mM sodium pyrophosphate. The rate of decrease in absorbance at 340 nm was measured at 30°C with a recording spectrophotometer.

[3] = inhibition of enzyme, pH 7.4, 30°C, reaction initiated with 0.02 mM fructose-1,6-bisphosphate, read-out: FBP IC₅₀

Compound | IC50 (purified rat liver FBP; [3]) | EC50 [1] | EC50 [2] | IC50 (purified rat liver FBP)
O=P(O)(O)OC[C@H]1O[C@](OP(=O)(O)O)(C(F)F)[C@@H](O)[C@@H]1O [1-Deoxy-1,1-difluoro-D-fructofuranose, 2,6-bis (dihydrogen phosphate), β-anomer, disodium salt] | > 800 µM | 0.15 µM |  | 
O=P(O)(O)OC[C@H]1O[C@@](OP(=O)(O)O)(C(F)F)[C@@H](O)[C@@H]1O [1-Deoxy-1,1-difluoro-D-fructofuranose, 2,6-bis(dihydrogen phosphate), α-anomer, disodium salt] | > 800 µM | 0.05 µM |  | 
O=P(O)(O)OC[C@H]1O[C@@](OP(=O)(O)O)(C(F)F)[C@@H](O)[C@@H]1O [1-Deoxy-1,1-difluoro-D-fructofuranose, 2,6-bis(dihydrogen phosphate), α-anomer, tetrasodium salt] |  |  | 15 µM | 
O=P(O)(O)OC[C@H]1O[C@](OP(=O)(O)O)(C(F)F)[C@@H](O)[C@@H]1O [1-Deoxy-1,1-difluoro-D-fructofuranose, 2,6-bis(dihydrogen phosphate), β-anomer, tetrasodium salt] |  |  | 0.3 µM | 
O=P(O)(O)OC[C@H]1OC(O)(C(F)F)[C@@H](O)[C@@H]1O (stereo partly drawn) [1-Deoxy-1,1-difluoro-D-fructofuranose, 6-(dihydrogen phosphate), sodium salt] | 450 µM | 300 µM | 1000 µM | 
O=P(O)(O)OC[C@H]1O[C@@](CO)(COP(=O)(O)O)[C@@H](O)[C@@H]1O [2,5-Anhydro-2-C-(hydroxymethyl)-D-glucitol, 1,6-bis(dihydrogen phosphate)] |  | 6.3 µM | 0.4 µM | 
O=P(O)(O)OC[C@H]1O[C@](CO)(COP(=O)(O)O)[C@@H](O)[C@@H]1O [2,5-Anhydro-2-C-[(phosphonooxy)methyl]-D-glucitol, 6-(dihydrogen phosphate)] |  | 2 µM | 6.6 µM | 
O=P(O)(O)OC[C@@H]1O[C@H](COP(=O)(O)O)[C@@H](O)[C@@H]1O [2,5-Anhydro-D-glucitol, 1,6-bis(dihydrogen phosphate)] | 32 µM | 2.2 µM |  | 
O=P(O)(O)OC[C@@H](O)[C@H]1O[C@H](COP(=O)(O)O)[C@@H](O)[C@@H]1O [2,5-Anhydro-D-glycero-D-manno-heptitol, 1,7-bis(dihydrogen phosphate)] |  | 2.1 µM |  | 
O=P(O)(O)OC[C@H]1O[C@H](COP(=O)(O)O)[C@@H](O)[C@@H]1O [2,5-Anhydro-D-mannitol, 1,6-bis(dihydrogen phosphate)] |  | 0.26 µM |  | 2 µM
O=P(O)(O)OCC[C@@]1(CO)O[C@H](COP(=O)(O)O)[C@@H](O)[C@@H]1O [3,6-Anhydro-2-deoxy-3-C-(hydroxymethyl)-D-manno-hepitol, 1,7-bis(dihydrogen phosphate)] | 100 µM | 7.2 µM |  | 
O=P(O)(O)OCC[C@@H]1O[C@H](COP(=O)(O)O)[C@@H](O)[C@@H]1O [3,6-Anhydro-2-deoxy-D-gluco-heptitol, 1,7-bis(dihydrogen phosphate)] | 230 µM | 4 µM |  | 
O=P(O)(O)OCC[C@H]1O[C@H](COP(=O)(O)O)[C@@H](O)[C@@H]1O [3,6-Anhydro-2-deoxy-D-manno-heptitol, 1,7-bis(dihydrogen phosphate)] | 50 µM | 0.56 µM |  | 
O=P(O)(O)OCCCC1O[C@H](COP(=O)(O)O)[C@@H](O)[C@@H]1O (stereo partly drawn) [4,7-Anhydro-2,3-dideoxy-D-gluco-octitol, 1,8-bis(dihydrogen phosphate), and 4,7-Anhydro-2,3-dideoxy-D-manno-octitol, 1,8-bis(dihydrogen phosphate)] |  | 12 µM |  | 
O=P(O)(O)OC[C@H]1O[C@@](CO)(OP(=O)(O)O)[C@@H](O)[C@@H]1O [Beta-D-fructose-2,6-bisphosphate, reference compound] | 3 µM | 0.02 µM | 0.004 µM | 
